Laboratory results reported in PubChem BioAssay (NCI).
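Values below derive from 48-hour exposures of cells grown in 96-well plates, with endpoints linearly interpolated between the two concentrations bracketing the appropriate inhibition level. At the TGI there is no net growth.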

Key:
Assay in all cases: inhibition of tumour cell growth, NCI panel, 48 h
MDA-N = system: MDA-N
KM12 colon = system: KM12 colon
OVCAR-5 ovarian = system: OVCAR-5 ovarian
SF-268 CNS = system: SF-268 CNS
RPMI-8226 leukemia = system: RPMI-8226 leukemia
SNB-75 CNS = system: SNB-75 CNS
MDA-MB-231 breast = system: MDA-MB-231 breast
BT-549 breast = system: BT-549 breast
PC-3 prostate = system: PC-3 prostate
UO-31 renal = system: UO-31 renal
U251 CNS = system: U251 CNS
786-0 renal = system: 786-0 renal
MOLT-4 leukemia = system: MOLT-4 leukemia
UACC-257 melanoma = system: UACC-257 melanoma
IGROV1 ovarian = system: IGROV1 ovarian
M14 melanoma = system: M14 melanoma
HS 578T breast = system: HS 578T breast
EKVX NSCLC = system: EKVX NSCLC
T-47D breast = system: T-47D breast
ACHN renal = system: ACHN renal
A549 NSCLC = system: A549 NSCLC
TK-10 renal = system: TK-10 renal
K-562 leukemia = system: K-562 leukemia
UACC-62 melanoma = system: UACC-62 melanoma
OVCAR-3 ovarian = system: OVCAR-3 ovarian
SK-OV-3 ovarian = system: SK-OV-3 ovarian
DU-145 prostate = system: DU-145 prostate
NCI/ADR-RES ovarian = system: NCI/ADR-RES ovarian
NCI-H460 lung = system: NCI-H460 lung
HT29 colon = system: HT29 colon
HL-60(TB) leukemia = system: HL-60(TB) leukemia
COLO 205 colon = system: COLO 205 colon
MDA-MB-435 = system: MDA-MB-435
HCC-2998 colon = system: HCC-2998 colon
A498 renal = system: A498 renal
NCI-H23 lung = system: NCI-H23 lung
HOP-92 NSCLC = system: HOP-92 NSCLC
CAKI-1 renal = system: CAKI-1 renal
HCT-116 colon = system: HCT-116 colon
HOP-62 NSCLC = system: HOP-62 NSCLC
OVCAR-8 ovarian = system: OVCAR-8 ovarian
SK-MEL-28 melanoma = system: SK-MEL-28 melanoma
SK-MEL-2 melanoma = system: SK-MEL-2 melanoma
MCF7 breast = system: MCF7 breast
HCT-15 colon = system: HCT-15 colon
NCI-H226 lung = system: NCI-H226 lung
OVCAR-4 ovarian = system: OVCAR-4 ovarian
LOX IMVI melanoma = system: LOX IMVI melanoma
CCRF-CEM leukemia = system: CCRF-CEM leukemia
SF-295 CNS = system: SF-295 CNS
SN12C renal = system: SN12C renal
RXF 393 renal = system: RXF 393 renal
SW-620 colon = system: SW-620 colon
SNB-19 CNS = system: SNB-19 CNS
NCI-H522 lung = system: NCI-H522 lung
SK-MEL-5 melanoma = system: SK-MEL-5 melanoma
SF-539 CNS = system: SF-539 CNS
MALME-3M melanoma = system: MALME-3M melanoma

Measured: TGI

COc1ccc(N2C(=O)C3c4[nH]c5ccc(OC)cc5c4C4CCC(C(C)C)CC4C3C2=O)cc1 (stereo unspecified)
> 84.4 µM: HS 578T breast
> 93.5 µM: MOLT-4 leukemia
> 92.5 µM: A498 renal
> 31.6 µM: K-562 leukemia | UACC-62 melanoma
99.4 µM: SNB-19 CNS
> 55.2 µM: 786-0 renal
54.8 µM: HOP-62 NSCLC
> 30.3 µM: CCRF-CEM leukemia
> 65.5 µM: SNB-75 CNS
> 74.5 µM: SF-268 CNS
not listed: SF-539 CNS | MALME-3M melanoma
> 100 µM: all other assays above

N#CCCN(CCNc1ccccc1)C(=O)Nc1ccc(NC(=O)N(CCC#N)CCNc2ccccc2)cc1
> 84.7 µM: HOP-62 NSCLC
> 66.3 µM: NCI-H522 lung
> 79.9 µM: SF-268 CNS
> 64.2 µM: HS 578T breast
> 31.6 µM: OVCAR-4 ovarian
> 83 µM: RXF 393 renal
> 81.5 µM: HOP-92 NSCLC
98 µM: TK-10 renal
> 80.4 µM: BT-549 breast
72 µM: SNB-75 CNS
not listed: IGROV1 ovarian | HL-60(TB) leukemia | CCRF-CEM leukemia
> 100 µM: all other assays above
